From BindingDB's records for PubMed 7969084 (Merck Sharp and Dohme Research Laboratories, 1994)

Biological target: T1, Cholecystokinin (Sus scrofa, UniProt P01356)
T1 sequence (P01356 whole entry): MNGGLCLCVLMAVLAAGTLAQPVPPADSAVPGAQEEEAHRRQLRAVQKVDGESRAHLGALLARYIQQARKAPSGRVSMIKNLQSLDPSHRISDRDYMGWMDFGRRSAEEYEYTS

## Cc1cccc(NC(=O)N[C@@H]2N=C(N3CCCCCC3)c3ccccc3N(C)C2=O)c1 [L-738416]
  Ki: 1.2 nM
